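Exposure lasted 48 hours, with cells grown in 96-well plates and compounds tested at five concentrations. Abbreviation: GI50, concentration required for 50% inhibition of growth. Definition used: TGI = concentration required for complete inhibition of growth.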
Assays:
Test in all cases: inhibition of tumour cell growth, NCI panel, 48 h
SK-OV-3 ovarian = system: SK-OV-3 ovarian
HCT-116 colon = system: HCT-116 colon
LOX IMVI melanoma = system: LOX IMVI melanoma
SNB-19 CNS = system: SNB-19 CNS
BT-549 breast = system: BT-549 breast
786-0 renal = system: 786-0 renal
NCI-H23 lung = system: NCI-H23 lung
TK-10 renal = system: TK-10 renal
OVCAR-8 ovarian = system: OVCAR-8 ovarian
HOP-92 NSCLC = system: HOP-92 NSCLC
CCRF-CEM leukemia = system: CCRF-CEM leukemia
A549 NSCLC = system: A549 NSCLC
UACC-257 melanoma = system: UACC-257 melanoma
HCC-2998 colon = system: HCC-2998 colon
NCI-H226 lung = system: NCI-H226 lung
HT29 colon = system: HT29 colon
U251 CNS = system: U251 CNS
IGROV1 ovarian = system: IGROV1 ovarian
UO-31 renal = system: UO-31 renal
NCI-H522 lung = system: NCI-H522 lung
PC-3 prostate = system: PC-3 prostate
DU-145 prostate = system: DU-145 prostate
T-47D breast = system: T-47D breast
SK-MEL-5 melanoma = system: SK-MEL-5 melanoma
MDA-MB-231 breast = system: MDA-MB-231 breast
MDA-MB-435 = system: MDA-MB-435
HOP-62 NSCLC = system: HOP-62 NSCLC
SW-620 colon = system: SW-620 colon
OVCAR-3 ovarian = system: OVCAR-3 ovarian
RXF 393 renal = system: RXF 393 renal
HL-60(TB) leukemia = system: HL-60(TB) leukemia
M14 melanoma = system: M14 melanoma
SNB-75 CNS = system: SNB-75 CNS
NCI-H460 lung = system: NCI-H460 lung
OVCAR-4 ovarian = system: OVCAR-4 ovarian
A498 renal = system: A498 renal
HS 578T breast = system: HS 578T breast
MCF7 breast = system: MCF7 breast
SF-268 CNS = system: SF-268 CNS
SR leukemia = system: SR leukemia
SN12C renal = system: SN12C renal
SK-MEL-28 melanoma = system: SK-MEL-28 melanoma
MOLT-4 leukemia = system: MOLT-4 leukemia
SF-295 CNS = system: SF-295 CNS
OVCAR-5 ovarian = system: OVCAR-5 ovarian
COLO 205 colon = system: COLO 205 colon
HCT-15 colon = system: HCT-15 colon
UACC-62 melanoma = system: UACC-62 melanoma
MALME-3M melanoma = system: MALME-3M melanoma
SK-MEL-2 melanoma = system: SK-MEL-2 melanoma
CAKI-1 renal = system: CAKI-1 renal
KM12 colon = system: KM12 colon
SF-539 CNS = system: SF-539 CNS
NCI/ADR-RES ovarian = system: NCI/ADR-RES ovarian
RPMI-8226 leukemia = system: RPMI-8226 leukemia
ACHN renal = system: ACHN renal
K-562 leukemia = system: K-562 leukemia

## Cn1c(=O)c(Oc2ccc(F)cc2F)cc2cnc(NC3CCS(=O)(=O)CC3)nc21
SK-OV-3 ovarian
  GI50: > 20 µM
  TGI: > 25 µM
HCT-116 colon
  GI50: > 25 µM
  TGI: > 25 µM
LOX IMVI melanoma
  GI50: > 25 µM
  TGI: > 25 µM
SNB-19 CNS
  GI50: > 25 µM
  TGI: > 25 µM
BT-549 breast
  GI50: > 25 µM
  TGI: > 25 µM
786-0 renal
  GI50: > 25 µM
  TGI: > 25 µM
NCI-H23 lung
  GI50: > 25 µM
  TGI: > 25 µM
TK-10 renal
  GI50: > 25 µM
  TGI: > 25 µM
OVCAR-8 ovarian
  GI50: > 25 µM
  TGI: > 25 µM
HOP-92 NSCLC
  GI50: 5.23 µM
  TGI: > 25 µM
CCRF-CEM leukemia
  GI50: > 25 µM
  TGI: > 25 µM
A549 NSCLC
  GI50: > 25 µM
  TGI: > 25 µM
UACC-257 melanoma
  GI50: > 25 µM
  TGI: > 25 µM
HCC-2998 colon
  GI50: > 25 µM
  TGI: > 25 µM
NCI-H226 lung
  GI50: > 25 µM
  TGI: > 25 µM
HT29 colon
  GI50: > 25 µM
  TGI: > 25 µM
U251 CNS
  GI50: > 25 µM
  TGI: > 25 µM
IGROV1 ovarian
  GI50: > 21.2 µM
  TGI: > 25 µM
UO-31 renal
  GI50: > 25 µM
  TGI: > 25 µM
NCI-H522 lung
  GI50: > 14.3 µM
  TGI: > 25 µM
PC-3 prostate
  GI50: > 25 µM
  TGI: > 25 µM
DU-145 prostate
  GI50: > 25 µM
  TGI: > 25 µM
T-47D breast
  GI50: > 19.8 µM
  TGI: > 25 µM
SK-MEL-5 melanoma
  GI50: > 25 µM
  TGI: > 25 µM
MDA-MB-231 breast
  GI50: > 22 µM
  TGI: > 25 µM
MDA-MB-435
  GI50: > 25 µM
  TGI: > 25 µM
HOP-62 NSCLC
  GI50: > 14.8 µM
  TGI: > 25 µM
SW-620 colon
  GI50: > 25 µM
  TGI: > 25 µM
OVCAR-3 ovarian
  GI50: > 25 µM
  TGI: > 25 µM
RXF 393 renal
  GI50: > 25 µM
  TGI: > 25 µM
HL-60(TB) leukemia
  GI50: > 25 µM
  TGI: > 25 µM
M14 melanoma
  GI50: > 25 µM
  TGI: > 25 µM
SNB-75 CNS
  GI50: > 14.2 µM
  TGI: > 25 µM
NCI-H460 lung
  GI50: > 25 µM
  TGI: > 25 µM
OVCAR-4 ovarian
  GI50: > 25 µM
  TGI: > 25 µM
A498 renal
  GI50: > 25 µM
  TGI: > 25 µM
HS 578T breast
  GI50: > 25 µM
  TGI: > 25 µM
MCF7 breast
  GI50: > 25 µM
  TGI: > 25 µM
SF-268 CNS
  GI50: > 18.9 µM
  TGI: > 25 µM
SR leukemia
  GI50: > 25 µM
  TGI: > 25 µM
SN12C renal
  GI50: > 25 µM
  TGI: > 25 µM
SK-MEL-28 melanoma
  GI50: > 25 µM
  TGI: > 25 µM
MOLT-4 leukemia
  GI50: > 25 µM
  TGI: > 25 µM
SF-295 CNS
  GI50: > 12.4 µM
  TGI: > 25 µM
OVCAR-5 ovarian
  GI50: > 25 µM
  TGI: > 25 µM
COLO 205 colon
  GI50: > 25 µM
  TGI: > 25 µM
HCT-15 colon
  GI50: > 25 µM
  TGI: > 25 µM
UACC-62 melanoma
  GI50: > 25 µM
  TGI: > 25 µM
MALME-3M melanoma
  GI50: > 25 µM
  TGI: > 25 µM
SK-MEL-2 melanoma
  GI50: > 25 µM
  TGI: > 25 µM
CAKI-1 renal
  GI50: > 25 µM
  TGI: > 25 µM
KM12 colon
  GI50: > 25 µM
  TGI: > 25 µM
SF-539 CNS
  GI50: > 25 µM
  TGI: > 25 µM
NCI/ADR-RES ovarian
  GI50: > 25 µM
  TGI: > 25 µM
RPMI-8226 leukemia
  GI50: > 25 µM
  TGI: > 25 µM
ACHN renal
  GI50: > 14.3 µM
  TGI: > 25 µM
K-562 leukemia
  GI50: > 25 µM
  TGI: > 25 µM

Reference: PubChem BioAssay (NCI)
